Measured values taken from patent US4247535A, “Modified cyclodextrin sulfate salts as complement inhibitors” (American Cyanamid Company, priority 1979, dated 1981).
Where a name gives a salt, the structure may show the parent alone.

Legend:
[1] = system: hereditary angioneurotic edema; conditions: reported in the literature; cited from earlier work
complement system = conditions: reported, British Journal of Experimental Pathology, 33, 327-339 (1952); cited from earlier work
[2] = system: late components of human complement (C3-C9); assay: Test Code 035 (C3-C9 inhibitor), lysis of EAC 142; format: biochemical; conditions: activity in wells, twofold serial dilution assay; higher well number = higher activity
Text: (§1) An active inhibitor protects C2 from C1 and C4; (ii) Test Code 035 (C3-C9 inhibitor)--This test determines the ability of the late components of human complement (C3-C9) to lyse EAC 142 in the presence of appropriate dilutions of the test compound. An active inhibitor protects EAC 142 from lysis by human C3-C9; (iii) Test Code 036 (C-Shunt inhibitor)--In this test human erythrocytes rendered fragile are lysed in autologous serum via the shunt pathway activated by cobra venom factor in the presence of appropriate dilutions of the test compound. Inhibition of the shunt pathway results in failure of lysis; (iv) Forssman Vasculitis Test--Here, the well known complement dependent lesion, Forssman vasculitis, is produced in guinea pigs by intradermal injection of rabbit anti-Forssman antiserum. […]

human serum = conditions: both in vitro and in vivo, judged by reduction in total hemolytic complement activity; cited from earlier work
activated human C1 = activated human C1 (Homo sapiens, UniProt P09871); assay: Test Code 026 (C1 inhibitor); format: biochemical; conditions: activity in wells, twofold serial dilution assay; higher well number = higher activity
Sequence of activated human C1 (P09871 16-688): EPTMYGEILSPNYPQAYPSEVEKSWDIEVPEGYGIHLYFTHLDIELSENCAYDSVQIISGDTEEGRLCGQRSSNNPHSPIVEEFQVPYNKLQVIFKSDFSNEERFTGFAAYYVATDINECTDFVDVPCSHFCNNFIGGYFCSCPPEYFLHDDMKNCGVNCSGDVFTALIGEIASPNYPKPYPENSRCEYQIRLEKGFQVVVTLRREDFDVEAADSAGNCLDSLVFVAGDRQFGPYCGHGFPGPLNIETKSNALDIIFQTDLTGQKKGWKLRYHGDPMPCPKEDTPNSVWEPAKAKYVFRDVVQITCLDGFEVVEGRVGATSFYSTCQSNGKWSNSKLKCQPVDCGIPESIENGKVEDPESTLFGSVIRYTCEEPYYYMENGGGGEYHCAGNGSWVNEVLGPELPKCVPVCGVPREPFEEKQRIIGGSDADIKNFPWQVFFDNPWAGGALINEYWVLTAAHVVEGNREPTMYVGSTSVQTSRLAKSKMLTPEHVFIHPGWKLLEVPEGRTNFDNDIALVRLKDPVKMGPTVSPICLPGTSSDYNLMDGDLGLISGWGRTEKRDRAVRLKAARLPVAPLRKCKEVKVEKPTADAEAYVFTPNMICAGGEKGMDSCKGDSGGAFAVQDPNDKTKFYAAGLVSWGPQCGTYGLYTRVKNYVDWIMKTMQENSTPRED
Sequence of activated human C1 (P00736 18-705 partner): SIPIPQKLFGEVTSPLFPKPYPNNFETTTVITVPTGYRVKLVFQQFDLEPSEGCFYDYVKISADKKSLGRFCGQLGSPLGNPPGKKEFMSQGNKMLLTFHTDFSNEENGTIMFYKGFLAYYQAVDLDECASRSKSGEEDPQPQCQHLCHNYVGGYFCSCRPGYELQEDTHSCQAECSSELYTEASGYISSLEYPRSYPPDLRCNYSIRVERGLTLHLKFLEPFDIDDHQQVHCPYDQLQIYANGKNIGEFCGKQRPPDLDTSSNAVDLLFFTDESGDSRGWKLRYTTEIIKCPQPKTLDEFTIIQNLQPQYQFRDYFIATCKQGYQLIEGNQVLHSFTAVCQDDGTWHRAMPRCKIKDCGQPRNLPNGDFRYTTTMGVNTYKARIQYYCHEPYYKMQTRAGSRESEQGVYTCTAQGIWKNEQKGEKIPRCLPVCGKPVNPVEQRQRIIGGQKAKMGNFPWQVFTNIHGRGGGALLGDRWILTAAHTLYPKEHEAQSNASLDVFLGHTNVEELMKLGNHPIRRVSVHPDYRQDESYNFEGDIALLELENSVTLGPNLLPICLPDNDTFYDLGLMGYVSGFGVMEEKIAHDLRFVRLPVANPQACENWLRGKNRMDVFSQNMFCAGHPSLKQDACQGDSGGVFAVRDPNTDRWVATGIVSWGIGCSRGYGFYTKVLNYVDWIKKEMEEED
Sequence of activated human C1 (P02745 23-245 partner): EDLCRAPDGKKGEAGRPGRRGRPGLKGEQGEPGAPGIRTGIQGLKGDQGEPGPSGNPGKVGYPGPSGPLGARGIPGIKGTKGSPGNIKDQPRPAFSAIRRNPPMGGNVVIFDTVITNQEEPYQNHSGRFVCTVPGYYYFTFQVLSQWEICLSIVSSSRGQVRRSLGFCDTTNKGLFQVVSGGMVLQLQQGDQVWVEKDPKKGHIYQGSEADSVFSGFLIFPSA
Sequence of activated human C1 (P02746 28-253 partner): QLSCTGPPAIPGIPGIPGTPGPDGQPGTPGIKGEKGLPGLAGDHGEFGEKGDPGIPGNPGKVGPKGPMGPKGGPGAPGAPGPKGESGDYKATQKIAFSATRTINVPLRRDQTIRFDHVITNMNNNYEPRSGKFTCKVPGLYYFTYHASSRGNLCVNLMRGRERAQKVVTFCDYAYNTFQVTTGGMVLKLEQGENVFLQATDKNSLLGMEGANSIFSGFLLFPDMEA
Sequence of activated human C1 (P02747 29-245 partner): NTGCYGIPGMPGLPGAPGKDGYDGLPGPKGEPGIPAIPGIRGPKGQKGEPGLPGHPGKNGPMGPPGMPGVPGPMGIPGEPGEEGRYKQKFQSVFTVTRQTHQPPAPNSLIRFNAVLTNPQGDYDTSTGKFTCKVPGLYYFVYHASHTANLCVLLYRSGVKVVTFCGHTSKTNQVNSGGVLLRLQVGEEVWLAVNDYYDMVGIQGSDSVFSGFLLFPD
Text: as §1

shunt pathway = assay: Test Code 036 (C-Shunt inhibitor), lysis of fragile human erythrocytes in autologous serum, cobra venom factor; format: cell-based; conditions: activity in wells, twofold serial dilution assay; higher well number = higher activity
Text: as §1

whole complement = assay: Complement Level Reduction Test (in vivo, capillary tube assay of serum); conditions: 200 mg/kg i.v. or i.p.
Text: An active inhibitor protects C2 from C1 and C4; (ii) Test Code 035 (C3-C9 inhibitor)--This test determines the ability of the late components of human complement (C3-C9) to lyse EAC 142 in the presence of appropriate dilutions of the test compound. An active inhibitor protects EAC 142 from lysis by human C3-C9; (iii) Test Code 036 (C-Shunt inhibitor)--In this test human erythrocytes rendered fragile are lysed in autologous serum via the shunt pathway activated by cobra venom factor in the presence of appropriate dilutions of the test compound. Inhibition of the shunt pathway results in failure of lysis; (iv) Forssman Vasculitis Test--Here, the well known complement dependent lesion, Forssman vasculitis, is produced in guinea pigs by intradermal injection of rabbit anti-Forssman antiserum. The lesion is measured in terms of diameter, edema and hemorrhage and the extent to which a combined index of these is inhibited by prior intraperitoneal injection of the test compound at 200 mg/kg is then reported, unless otherwise stated; (v) Forssman Shock Test--Lethal shock is produced in guinea pigs by an i.v. injection of anti-Forssman antiserum and the harmonic mean death time of treated guinea pigs is compared with that of simultaneous controls; (vi) Complement Level Reduction Test--In this test, the above dosed guinea pigs, or others, are bled for serum and the complement level is determined in undiluted serum by the capillary tube method of U.S. Pat. No. 3,876,376 and compared to undosed control guinea pigs; and (vii) Cap 50 Test--Here, appropriate amounts of the test compound are added to a pool of guinea pig serum in vitro, after which the undiluted serum capillary tube assay referred to above is run. The concentration of compound inhibiting 50% is reported.
With reference to Table I, guinea pigs weighing about 300 g were dosed intravenously (i.v.) or intraperitoneally (i.p.) with 200 mg/kg of the test compound dissolved in saline and adjusted to pH 7-8. […] Percent inhibition was calculated by comparison with simultaneous controls. […]

## NC[C@H]1CC[C@H](C(=O)O)CC1 [tranexamic acid]
[1]
  treatment of hereditary angioneurotic edema: used with success

## heparin
Complement system
  anticomplementary effect: anticomplementary effect

## O=C(O)[C@H]1O[C@@H]2O[C@H]3[C@H](O)[C@@H](O)[C@@H](O[C@H]4[C@H](O)[C@@H](O)[C@@H](O[C@H]5[C@H](O)[C@@H](O)[C@@H](O[C@H]6[C@H](O)[C@@H](O)[C@@H](O[C@H]7[C@H](O)[C@@H](O)[C@@H](O[C@H]8[C@H](O)[C@@H](O)[C@@H](O[C@H]1[C@H](O)[C@H]2O)O[C@@H]8C(=O)O)O[C@@H]7C(=O)O)O[C@@H]6C(=O)O)O[C@@H]5C(=O)O)O[C@@H]4C(=O)O)O[C@@H]3C(=O)O [5,5',5",5'",5"",5'"",5"""-Heptacarboxy-6,6',6",6'",6"",6'"",] [5,5',5",5'",5"",5'"",5"""-Heptacarboxy-6,6',6",6'",6"",6'"",6"""-heptademethyl-β-cyclodextrin]
[2]
  035 In Vitro Activity: N

## pentosan-polysulfoester
Human serum
  anticomplementary activity on human serum: anticomplementary activity

## NCCCCCC(=O)O [epsilon-aminocaproic acid]
[1]
  treatment of hereditary angioneurotic edema: used with success

## O=C(O)[C@H]1O[C@@H]2O[C@H]3[C@H](OS(=O)(=O)O)[C@@H](OS(=O)(=O)O)[C@@H](O[C@H]4[C@H](OS(=O)(=O)O)[C@@H](OS(=O)(=O)O)[C@@H](O[C@H]5[C@H](OS(=O)(=O)O)[C@@H](OS(=O)(=O)O)[C@@H](O[C@H]6[C@H](OS(=O)(=O)O)[C@@H](OS(=O)(=O)O)[C@@H](O[C@H]7[C@H](OS(=O)(=O)O)[C@@H](OS(=O)(=O)O)[C@@H](O[C@H]8[C@H](OS(=O)(=O)O)[C@@H](OS(=O)(=O)O)[C@@H](O[C@H]1[C@H](OS(=O)(=O)O)[C@H]2OS(=O)(=O)O)O[C@@H]8C(=O)O)O[C@@H]7C(=O)O)O[C@@H]6C(=O)O)O[C@@H]5C(=O)O)O[C@@H]4C(=O)O)O[C@@H]3C(=O)O [5,5',5",5'",5"",5'"",5"""-Heptacarboxy-6,6',6",6'",6"",6'"",6"""-heptademethyl-β-cyclodextrin, heptasodium salt, tetradecakis (H-sulfate), tetradecasodium salt]
Activated human C1
  026 In Vitro Activity: +7 wells
[2]
  035 In Vitro Activity: +1 wells
Shunt pathway
  036 In Vitro Activity: +3 wells
Whole complement; 30 min.
  In Vivo Activity (Guinea Pig) % Inhibition 30 min.: -18%
Whole complement; 60 min.
  In Vivo Activity (Guinea Pig) % Inhibition 60 min.: +14%
Whole complement; 120 min.
  In Vivo Activity (Guinea Pig) % Inhibition 120 min.: -40%

## Nc1ccc2cc(S(=O)(=O)O)cc(O)c2c1N=Nc1ccc(NC(=O)Nc2ccc(N=Nc3c(N)ccc4cc(S(=O)(=O)O)cc(O)c34)c(S(=O)(=O)O)c2)cc1S(=O)(=O)O [chlorazol fast pink, 3,3'-ureylenebis-[6-(2-amino-8-hydroxy-6-sulfo-1-naphthylazo)]benzenesulfonic acid, tetrasodium salt]
Complement system
  anticomplementary effect: anticomplementary effect
